What was measured:
[1] = Oxygen radical absorbance capacity (ORAC) assay; set-up: ORAC assay TE25 (trolox equivalents): dose or concentration left out as unconfirmed; conditions: for ORAC assay TE25 (trolox equivalents): net AUC sample / net AUC trolox
Procedure: An ORAC assay was performed as disclosed in the literature (Huang, D. et al., J. Agric. Food Chem., 53, 1841-56, 2005).
AAPH (60 mM) and fluorescein (50 nM) were prepared in buffer (75 mM phosphate buffer, pH7.4) without a sample or a sample or a standard (Trolox). Each of the samples and the standard was suspended in a solution of 7% RMCD (randomly methylated beta-cyclodextrin) in 50% acetone. RMCD was used to increase the solubility of oil-soluble samples. Each sample was sufficiently mixed with fluorescein solution (66 nM, 190 μl) by shaking for 5 seconds. After incubation at 37° C. for 10 minutes, AAPH (500 mM, 30 μl) was quickly added to each sample, and a decrease in the fluorescence was measured using a fluorescence microplate reader (Ex=485 nm, Em=530 nm; SpectraMax GeminiEM, Molecular Devices, Sunnyvale, Calif.) at 37° C. at 5-min intervals for 9 hours. To quantify the activity of scavenging peroxyl radicals, AUC (area-under-the-curve) was calculated according to the following equation 2, and net AUC was calculated according to the following equation 3, and the TE (trolox equivalents) of each sample was calculated according to the following equation 4 based on a standard curve of net AUC plotted according to an increase in trolox concentration. AUC=(0.5+f1/f0+f2/f0+f3/f0+ . . . +fn−2/f0+fn−1/f0+fn/f0)×5, Equation 2
wherein f0 is the first fluorescence at 0 min and time I. Net AUC=AUCsample−AUCblank. Equation 3 TE(trolox equivalents) of each sample=[netAUCsample […]]/[net AUCtrolox […]]. Equation 4
(§1) The antioxidant activities of the verbenone derivatives of the present invention were measured by the following two different chemical reactions: (1) a single electron transfer-based assay that is a […] [DPPH] assay that measures a decrease in DPPH acting as a free radical generator and a termination probe; and (2) a hydrogen atom transfer assay that is an oxygen radical absorbance capacity [[…]] assay that measures the competitive reaction kinetics of a peroxyl radical generator (AAPH; 2,2′-azobis-(2-methylpropionamide)-dihydrochloride) and each sample acting as an antioxidant for oxidizable fluorescent probe (fluorescein).

[2] = DPPH assay (ability to scavenge nitrogen radicals); set-up: DPPH assay % inhibition: concentration or dose not given beside the values; conditions: relative to vitamin C (Equation 1)
Procedure: The samples were mixed with DPPH (23.6 μg/ml, in ethanol), and incubated in dark at 37° C. for 30 minutes. The DPPH absorbance reduced by each sample was measured at 517 nm. Vitamin C (Sigma-Aldrich, St. Louis, Mo.) was used as a control, and the DPPH inhibition value (%) was calculated using the following equation: Scavenging activity (%)=[Absmax(Vit.C)−Abssample]/[Absmax(Vit.C)−Absmin(Vit.C)]×100. Equation 1
as §1

cortical neurons [3] = assay: Oxygen-glucose deprivation (OGD)/reoxygenation neuronal injury, LDH release; format: cell-based; conditions: rat cortical neurons, FIG. 1
Procedure: (§2) Cortical neurons (5×10^5 cells/ml) were isolated from fetal SD rats (16-17 days). Specifically, brain cortex was cut, and cells were isolated from the tissue by repeated trituration using a Pasteur pipette in buffer (Hanks' Balanced Salt Solution, HBSS). The cell suspension (1.8×10^3 cells/mm^2) was dispensed on a plate pretreated with poly-D-lysine ([…])/laminin ([…]). The cells were placed in 10% FBS-containing NBM medium, and incubated in a […]/5% CO2 atmosphere at 37° C. After 15-16 days of the incubation, the experiment was performed.
In order to induce hypoxic-ischemic symptoms in vitro, the incubated cells were placed in an anoxic chamber (partial oxygen pressure <2 mmHg). The cells were incubated glucose-free DMEM while being bubbled with an anaerobic gas mixture (95% N2 and 5% CO2) for 30 minutes to remove residual oxygen, and were incubated at 37° C. for 90 minutes for oxygen deprivation. After 90 minutes, the exposed solution was replaced with 25 mmol/L glucose-containing DMEM medium to stop the OGD reaction, and the cells were restored to normal oxygen conditions. Control cells not exposed to OGD were incubated in glucose (25 mmol/L)-containing DMEM medium provided with an aerobic gas mixture (95% air and 5% CO2). The cells were treated with each sample 30 minutes before, and during the entire period of OGD/re-oxygenation.
(§3) In order to measure cell injury or cell death, the amount of LDH released into the medium was measured using a cell viability measurement kit (Sigma-Aldrich, St. Louis, Mo.). Cell viability was expressed as the percentage of LDH relative to the total cellular LDH level measured in sister cultures lysed by freezing-thawing after the experiment.

cortical neurons [4] = assay: NMDA-induced excitotoxicity, LDH release; format: cell-based, SD rats; set-up: dose or concentration left out as unconfirmed; conditions: cultured cortical neuronal cells; sample 30 min before NMDA; lower than MK-801; FIG. 2
Procedure: as §2
After incubation on the plate for 15-18 days, the cortical neurons were exposed to NMDA ([…]) in a solution (Mg^2+-free Earle's balanced salt solution (EBSS); containing 1.8 mM CaCl2 and 10 mM glycine) for 10 minutes. After exposure, the cells were washed with MgSO4-containing EBSS solution, and incubated in 25 mmol/L glucose-containing DMEM medium in a 5% CO2 incubator at 37° C. 30 Minutes before treatment with NMDA, the cells were treated with each sample […].
as §3

Structure (SMILES) | ORAC assay Net AUC [1] | ORAC assay TE25 (trolox equivalents) [1] | DPPH assay % inhibition [2] [%] | neuronal injury induced by OGD (LDH release) (cortical neurons [3]; OGD/reoxygenation, comparable to MK801) | cytotoxicity (cortical neurons [3]) | NMDA-induced neuronal injury (cortical neurons [4])
CC1(C)[C@@H]2C[C@H]1C(C=Cc1ccc(O)c(Br)c1)=CC2=O [Compound 3d, (1S,5R)-4-(3-bromo-4-hydroxystyryl)-6,6-dimethylbicyclo[3.1.1]hept-3-en-2-one] | 168.12 ± 5.24 | 3.74 ± 0.12 | 29.45 ± 2.41 | – | – | –
COc1ccc(C=CC2=CC(=O)[C@H]3C[C@@H]2C3(C)C)cc1OC [Compound 4f, (1S,5R)-4-(3,4-dimethoxystyryl)-6,6-dimethylbicyclo[3.1.1]hept-3-en-2-one] | 39.35 ± 1.67 | 0.88 ± 0.04 | – | – | – | –
CC1(C)[C@@H]2C[C@H]1C(/C=C/c1ccncc1)=CC2=O [Compound 5c] | 22.51 ± 0.34 | 0.50 ± 0.01 | – | – | – | –
COc1ccc(C=CC2=CC(=O)[C@H]3C[C@@H]2C3(C)C)cc1 [Compound 4c, (1S,5R)-4-(4-methoxystyryl)-6,6-dimethylbicyclo[3.1.1]hept-3-en-2-one] | 38.06 ± 2.00 | 0.79 ± 0.01 | – | – | – | –
COc1cc(O)ccc1C=CC1=CC(=O)[C@H]2C[C@@H]1C2(C)C [Compound 3b, (1S,5R)-4-(4-hydroxy-2-methoxystyryl)-6,6-dimethylbicyclo[3.1.1]hept-3-en-2-one] | 106.48 ± 1.89 | 2.37 ± 0.04 | 38.13 ± 5.62 | – | – | –
COc1cc(C=CC2=CC(=O)[C@H]3C[C@@H]2C3(C)C)cc(OC)c1 [Compound 4g, (1S,5R)-4-(3,5-dimethoxystyryl)-6,6-dimethylbicyclo[3.1.1]hept-3-en-2-one] | 45.28 ± 0.62 | 1.01 ± 0.01 | – | – | – | –
CC1(C)[C@@H]2C[C@H]1C(C=Cc1ccc(F)cc1)=CC2=O [Compound 4b, (1S,5R)-4-(4-fluorostyryl)-6,6-dimethylbicyclo[3.1.1]hept-3-en-2-one] | 26.15 ± 1.26 | 0.62 ± 0.02 | – | – | – | –
COc1cc(O)cc(OC)c1C=CC1=CC(=O)[C@H]2C[C@@H]1C2(C)C [Compound 3e, (1S,5R)-4-(4-hydroxy-2,6-dimethoxystyryl)-6,6-dimethylbicyclo[3.1.1]hept-3-en-2-one] | 166.26 ± 6.05 | 3.70 ± 0.13 | 55.80 ± 7.52 | – | – | –
CC1(C)[C@@H]2C[C@H]1C(C=Cc1ccccc1O)=CC2=O [Compound 3h, (1S,5R)-4-(2-hydroxystyryl)-6,6-dimethylbicyclo[3.1.1]hept-3-en-2-one] | 98.77 ± 2.53 | 2.20 ± 0.06 | 4.64 ± 0.60 | – | – | –
CC1(C)[C@@H]2C[C@H]1C(C=Cc1ccc(O)cc1)=CC2=O [Compound 3a, (1S,5R)-4-(4-hydroxystyryl)-6,6-dimethylbicyclo[3.1.1]hept-3-en-2-one] | 153.98 ± 1.68 | 3.43 ± 0.04 | 19.11 ± 0.67 | significantly reduced neuronal injury | showed no cytotoxicity | significantly reduced NMDA-induced neuronal injury
COc1ccc(OC)c(C=CC2=CC(=O)[C@H]3C[C@@H]2C3(C)C)c1 [Compound 4h, (1S,5R)-4-(2,5-dimethoxystyryl)-6,6-dimethylbicyclo[3.1.1]hept-3-en-2-one] | 32.44 ± 1.54 | 0.72 ± 0.03 | – | – | – | –
CC1(C)[C@@H]2C[C@H]1C(C=Cc1cccc(O)c1)=CC2=O [Compound 3g, (1S,5R)-4-(3-hydroxystyryl)-6,6-dimethylbicyclo[3.1.1]hept-3-en-2-one] | 73.74 ± 3.86 | 1.64 ± 0.09 | – | – | – | –
CC1(C)[C@@H]2C[C@H]1C(C=Cc1ccc(-c3ccccc3)cc1)=CC2=O [Compound 4d, (1S,5R)-4-(2-(biphenyl-4-yl)vinyl)-6,6-dimethylbicyclo[3.1.1]hept-3-en-2-one] | 26.75 ± 1.27 | 0.56 ± 0.01 | – | – | – | –
CC1(C)[C@@H]2C[C@H]1C(/C=C/c1cccnc1)=CC2=O [Compound 5b, (1S,5R)-6,6-dimethyl-4-((E)-2-(pyridin-3-yl)vinyl)bicyclo[3.1.1]hept-3-en-2-one] | 22.93 ± 0.61 | 0.51 ± 0.01 | – | – | – | –
CC1(C)[C@@H]2C[C@H]1C(/C=C/c1ccccn1)=CC2=O [Compound 5a, (1S,5R)-6,6-dimethyl-4-((E)-2-(pyridin-2-yl)vinyl)bicyclo[3.1.1]hept-3-en-2-one] | 23.51 ± 0.79 | 0.52 ± 0.02 | – | – | – | significantly reduced NMDA-induced neuronal injury
CC1(C)[C@@H]2C[C@H]1C(C=Cc1ccccc1)=CC2=O [Compound 4a, (1S,5R)-6,6-dimethyl-4-styrylbicyclo[3.1.1]hept-3-en-2-one] | 27.73 ± 0.74 | 0.61 ± 0.01 | – | – | – | –
COc1ccc(Br)cc1C=CC1=CC(=O)[C@H]2C[C@@H]1C2(C)C [Compound 4i, (1S,5R)-4-(5-bromo-2-methoxystyryl)-6,6-dimethylbicyclo[3.1.1]hept-3-en-2-one] | 32.96 ± 1.03 | 0.73 ± 0.02 | – | – | – | –
COc1ccc(C=CC2=CC(=O)[C@H]3C[C@@H]2C3(C)C)c(O)c1 [Compound 3i, (1S,5R)-4-(2-hydroxy-4-methoxystyryl)-6,6-dimethylbicyclo[3.1.1]hept-3-en-2-one] | 136.87 ± 3.24 | 3.05 ± 0.07 | 51.21 ± 3.83 | – | – | significantly reduced NMDA-induced neuronal injury

Source: patent publication US10710951B2, “Pharmaceutical composition containing verbenone derivative for treating or preventing neurodegenerative disease” (KOREA UNIVERSITY RESEARCH AND BUSINESS FOUNDATION, priority 2012, dated 2020)
